Experimental data from US9962341B2, “Active pharmaceutical ingredient (API) comprising cannabinoids for use in the treatment of cancer” (GW Pharma Limited, priority 2014, dated 2018).
Read-outs that look alike come from different tables or passages of the source.

Tested on: MDA-MB-231
Test: Cell viability (CellTiter-Blue, 72 h), MDA-MB-231 breast cancer cells
Assay type: cell-based
Conditions: for IC50: Homo sapiens; for effect (but only 50% effect): extent of effect reached
Protocol: The cell lines tested in this Example were as follows. Breast cancer: MDA-MB-231; SK-BR3; and BT474. Liver cancer: HepG2.
The phytocannabinoids were tested alone and in various ratioed combinations in media containing final concentrations of 10% and 1% foetal bovine serum at 72 h for the breast and prostate cancer lines and 1% foetal bovine serum for the liver cancer line HepG2.
Each tumour cell line was maintained in vitro in RPMI 1640+10% heat inactivated FBS and 2 mM L-glutamine (growth media) at 37° C. in 5% CO2 and humidified conditions. The cells were harvested, washed, re-suspended into growth medium and counted. The cells were re-suspended into assay media (RPMI 1640+5% heat inactivated FBS+ and 2 mM L-glutamine) at 8×104-2×10^5 cells/ml (dependent upon cell type) and plated into the middle 240 wells of 384 well tissue culture plates (Corning CellBind, black-wall plates) 12.5 μl/well aliquots; 62.5 μl of growth media was aliquoted into the outer wells. There were 4 plates for each cell line. The plates were incubated overnight at 37° C., in 5% humidified CO2.
The phytocannabinoid test compounds were prepared in 100% DMSO vehicle at a stock concentration of 10 mM.
Starting with the 10 mM stock, the compounds were diluted to 125 μM in FBS-free growth media.
These were diluted in FBS-free growth media to 125 μM before serial dilution.
5 volumes of CBD 10 mM stock was added to 1 volume of the other agent (also at 10 mM) and 4 volumes of DMSO. This made a final concentration of 5 mM:1 mM. This was then diluted in FBS-free growth media so the top concentration of CBD would be 125 μM (before serial dilution). Each compound and compound combination stock was serially diluted in FBS-free growth media (containing 1.25% v/v DMSO) from 125 μM to 41.7, 13.89, 4.63, 1.54, 0.514, 0.171, 0.057 and 0.019 μM (1.25× final assay concentrations). Vehicle was prepared at equivalent dilutions in assay media. The top final concentration of compound in the assay was always 100 μM so CBD5:1CBG was 100 μM CBD and 20 μM CBG.
Taxotere SOC was prepared at a stock concentration of 1 mM in 100% DMSO. Taxotere was serially diluted from the stock solution into FBS-free growth media to 12.5 μM, then serially diluted in FBS-free growth media containing 1.25% DMSO to 4.17, 1.39, 0.46, 0.154, 0.051, 0.017, 0.006, 0.002 μM (1.25× final assay concentrations).
The plates were incubated for 72 h at 37° C. in 5% humidified CO2. To develop the plates, at 72 h, 10 μl of CellTiter-Blue™ reagent was added to each test/blank well. The plates were incubated at 37° C., 5% humidified CO2. Fluorescence was measured using a Flex II Station plate reader (570 nm excitation wavelength, 600 nm emission wavelength, 590 nm cut-off) after 3 h.
The experimental conditions were the same as the experiment above, with the same compound dilutions and volumes for plating but using growth media containing 10% FBS rather than FBS-free media.
The raw data values expressed in relative fluorescent units were normalised to the vehicle for each individual plate and any reduction in fluorescence indicated a decrease in viability.
The data were analysed in GraphPad PRISM using a non-linear sigmoidal plot with variable slope (asymmetric five point linear regression) and where possible an IC50 value for each single compound and combination was generated.
For the calculation, raw data values expressed in relative fluorescent units were normalised to the vehicle for each individual plate (set as 0%) and the reduction in fluorescence calculated as an increase in inhibition of viability.
The data was formatted in Excel for each assay plate so that the average effect at each concentration for each separate phytocannabinoid and each of the combinations could be determined.
The mean data at each concentration of CBD was imported into the analysis package Calcusyn. Calcusyn software was designed by M. Hayball and C.

[1] = MDA-MB-231, 72 h, read-out: IC50 values, MDA-MB-231, 1% FBS, 72 h
[2] = MDA-MB-231, 72 h, read-out: IC50 values, MDA-MB-231, 10% FBS, 72 h
[3] = MDA-MB-231, read-out: Dm (median effect dose), MDA-MB-231, 1% FBS, Calcusyn median-effect analysis

SMILES | IC50 [1] [µM] | IC50 [2] [µM] | IC50 [3] [µM] | IC50 values (MDA-MB-231, 10% FBS, 72 h) | effect (but only 50% effect) (MDA-MB-231, 1% FBS) | effect (but only 50% effect) (MDA-MB-231, 10% FBS)
C=C(C)[C@@H]1CCC(C)=C[C@H]1c1c(O)cc(CCCCC)cc1O [CBD, Cannabidiol] | 7.4 | 27 | 5.61 | – | – | –
C=C(C)[C@@H]1CCC(C)=C[C@H]1c1c(O)cc(CCCCC)c(C(=O)O)c1O [CBDA, Cannabidiolic acid] | 30 | – | 20 | NE at 100 μM | – | –
CCCCCc1cc(O)c(C/C=C(\C)CCC=C(C)C)c(O)c1 [CBG, Cannabigerol] | 4.1 | 29 | 14.2 | – | – | –
CCCCCc1cc(O)c(C/C=C(\C)CCC=C(C)C)c(O)c1C(=O)O [CBGA, Cannabigerolic acid] | 16 | ~100 | 43.5 | – | – | –
CCCc1cc(O)c2c(c1)OC(C)(C)[C@@H]1CCC(C)=C[C@@H]21 [THCV, Tetrahydrocannabivarin] | 14.4 | 36 | 39 | – | – | –
CC(=O)O[C@@]12CO[C@@H]1C[C@H](O)[C@@]1(C)C(=O)[C@H](O)C3=C(C)[C@@H](OC(=O)[C@H](O)[C@@H](NC(=O)OC(C)(C)C)c4ccccc4)C[C@@](O)([C@@H](OC(=O)c4ccccc4)[C@H]21)C3(C)C [Taxotere, Docetaxel, reference compound] | < 0.001 | < 0.001 | – | – | only 50% | only 50%
